In patent US20230286995A1, “METABOLICALLY STABLE PYRIMIDINYL DIHYDROQUINOXALINONES AS TUBULIN POLYMERIZATION INHIBITORS” (UNIVERSITY OF TENNESSEE RESEARCH FOUNDATION, priority 2022, published 2023):
Read-outs that look alike come from different tables or passages of the source.

Tests used:
[1] = test system: A375/TxR, M14/LCC6MDR1, MDA-MB-231/TxR, PC3/TxR, and DU145/TxR; experiment: Cell proliferation inhibition assay (MTS), paclitaxel-resistant panel; assay type: cell-based, human
Protocol: Cell proliferation inhibition assay: The cell proliferation inhibitory effects of tested compounds were first determined through MTS assay as previously described. In short, 3000 to 7500 cells were added to a 96-well cell culture plate followed by the treatment of the test compounds (0.1 nM to 3 μM) in quadruplicate after seeding and overnight incubation. After 72 hours of treatment, MTS (Promega) was added to the wells and the absorbance was measured at […] after incubating for 1.5 to 2 h. […] Briefly, A375/TxR cells (1000 cells/well) were treated with growth medium containing 0.5 nM, 1 nM, or 2 nM of 5v and incubated for over 7 days (the incubation medium was changed every 3 days). After fixing and staining with 0.5% crystal violet, the cell colonies were quantified by the Hybrid Counting module of the Keyence BZ-X700 microscope. The assay was performed in triplicate.

porcine brain tubulin = target: T1, porcine brain tubulin (Sus scrofa, UniProt P02550+P02554); experiment: Tubulin polymerization inhibitory assay (FIG. 29A); assay type: biochemical; settings: 10 μM, 37° C.; DMSO control 0.3
T1 construct: tubulin mixture containing porcine brain tubulin (3 mg/mL); purchased Cytoskeleton, Inc. T-238P; host or cells: porcine brain
Protocol: Tubulin polymerization inhibitory assay: In vitro tubulin polymerization assay was carried out according to the manufacturers' instructions (Cytoskeleton). Briefly, 10 μM of 5v was added into tubulin protein (3 mg/mL, purity>99%), and the mixture was transferred into a microplate reader and incubated at 37° C. […] Colchicine and paclitaxel were used as positive controls. […] The assay was carried out in duplicate.

PC3/TxR = experiment: Cytotoxicity assay (MTS, 72 h); assay type: cell-based; settings: Homo sapiens, Table 6, paclitaxel-resistant, read-out: IC50 (nM) Prostate cancer PC3/TxR
Protocol: Biology. Cell culture and Reagents. […] MIA Paca-2 pancreatic cancer cells were cultured in media also supplemented with 2.5% horse serum. PANC-1 and PC-3 were cultured in RPMI 1640 medium (Gibco, Carlsbad, Calif.) supplemented with 10% FBS and 1% antibiotic/antimycotic mixture. […] For biological experiments, pyrimidine dihydroquinoxalinone derivatives were dissolved in DMSO to create 20 mM stock solutions and stored at −20° C. until use.
Cytotoxicity Assay. […] Each experiment consisted of four replicates.

A549 = experiment: cells; settings: Homo sapiens, A549, read-out: IC50 ± SEM (nM) A549
[2] = Microsomal stability assay; settings: Table 3; liver microsomes; mean (% CV)
[3] = test system: Mia PaCa-2-Luc xenografts; assay type: in vivo, NSG mice; settings: 2 mg/kg i.v., 1 dose/week, 42 days
Protocol: All animal procedures were performed in accordance with the protocols approved by the Institutional Animal Care and Use Committee (IACUC) at UTHSC. Two pancreatic cancer cell lines, Mia PaCa-2-Luc and PANC-1-Luc, were used in this study. 50 μL of Mia PaCa-2-Luc (5×10^6 cells in HBSS) or PANC-1-Luc (3×10^6 cells in HBSS) cell suspension was mixed with same volume of Matrigel (1:1 mixture) right before use. Cell mixture was subcutaneously injected to the right flank of each NSG mice (male, 6-8 weeks). […] The control group received no treatment. Treatment started when the average tumor size reached 70-100 mm^3. […] Tumor volume and body weight were measured twice per week. Tumor volume was calculated by the equation: volume (mm^3)=0.5×(length×width^2). All animals were euthanized at the end of the study. Tumors were excised, recorded for ex-vivo weight and size, and imaged.

DU-145/VxR xenografts = test system: DU-145/VxR xenografts; set-up: species or system NSG mice; settings: mouse, in vivo
[4] = Microsomal stability assay; settings: Table 3; liver microsomes; mean (% CV); remark: listed apart in the source
[5] = test system: PANC-1 and Mia PaCa-2 cell lines; experiment: Cell cycle analysis (PDAC); assay type: cell-based, human
Protocol: The cells were plated in 100-mm dishes at a concentration of 1-2×10^6 cells/dish in DMEM without serum. After serum starvation for 24 h, medium was replaced with complete culture medium containing tested compounds. For cell cycle analysis, the cells were trypsinized and fixed with 70% ethanol in −20° C. overnight. The fixed cells were incubated with 100 μg/mL of RNase A and 50 μg/mL propidium iodide for 30 min at room temperature. Stained cells were analyzed using Bio-Rad ZE5 and ModFit LT 5.0.9 software at Flow cytometry and cell sorting core at the University of Tennessee Health Science Center (UTHSC) and the proportion of G1, S, G2/M phases were determined.

[6] = test system: MDA-MB-231 BrM2 brain metastases; experiment: MDA-MB-231-BrM2 brain metastasis model, survival study (Experiment 2); assay type: in vivo, NSG mice
[7] = rats
[8] = test system: MDA-MB-231 BrM2 brain metastases

T1 sequence (P02550 whole entry): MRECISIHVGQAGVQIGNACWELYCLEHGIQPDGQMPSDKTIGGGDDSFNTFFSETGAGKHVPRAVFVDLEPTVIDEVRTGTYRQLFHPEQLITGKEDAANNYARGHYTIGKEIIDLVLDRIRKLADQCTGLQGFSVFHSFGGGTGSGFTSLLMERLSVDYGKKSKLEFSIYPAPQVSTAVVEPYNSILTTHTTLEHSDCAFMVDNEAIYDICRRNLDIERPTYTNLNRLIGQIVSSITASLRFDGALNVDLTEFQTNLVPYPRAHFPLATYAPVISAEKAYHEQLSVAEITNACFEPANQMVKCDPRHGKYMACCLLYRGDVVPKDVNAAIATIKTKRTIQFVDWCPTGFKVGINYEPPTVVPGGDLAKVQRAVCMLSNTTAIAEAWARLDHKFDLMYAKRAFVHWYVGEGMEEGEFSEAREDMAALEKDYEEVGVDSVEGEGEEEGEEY
T1 sequence (P02554 whole entry): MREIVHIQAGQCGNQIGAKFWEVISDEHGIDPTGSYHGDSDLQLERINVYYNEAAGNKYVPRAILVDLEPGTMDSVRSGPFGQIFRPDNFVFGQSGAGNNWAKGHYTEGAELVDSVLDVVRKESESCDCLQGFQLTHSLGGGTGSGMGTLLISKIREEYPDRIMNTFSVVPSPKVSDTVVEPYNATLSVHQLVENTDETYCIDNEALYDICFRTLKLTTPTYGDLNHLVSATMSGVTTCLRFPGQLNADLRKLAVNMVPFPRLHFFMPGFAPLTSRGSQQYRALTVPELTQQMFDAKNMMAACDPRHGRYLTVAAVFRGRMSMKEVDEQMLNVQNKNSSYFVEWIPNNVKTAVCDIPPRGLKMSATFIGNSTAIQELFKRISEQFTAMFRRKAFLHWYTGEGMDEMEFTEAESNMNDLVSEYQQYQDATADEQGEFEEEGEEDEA

## CCNc1nc2c(c(N3CC(=O)Nc4cc(OC)ccc43)n1)CCC2 [Compound 5v, 4-(2-(ethylamino)-6,7-dihydro-5H-cyclopenta[d]pyrimidin-4-yl)-7-methoxy-3,4-dihydroquinoxalin-2(1H)-one]
[1]
  IC50 level in paclitaxel-resistant cancer cells: sub-nanomolar level
Porcine brain tubulin
  A340 at which tubulin assembly stabilized: approximately 0.05
PC3/TxR
  IC50: 0.8 ± 0.1 nM

## COc1ccc2c(c1)NC(=O)CN2c1nc(C)nc2c1CCC2 [Compound 5m, 7-methoxy-4-(2-methyl-6,7-dihydro-5H-cyclopenta[d]pyrimidin-4-yl)-3,4-dihydroquinoxalin-2(1H)-one]
A549
  IC50: 4.5 ± 0.8 nM
[2]
  Metabolic stability in mouse t1/2: 14.4 min
[3]
  reduction of tumor growth vs control: 70-80%
DU-145/VxR xenografts
  endpoint average tumor volume: ~80 mm^3
[4]
  Metabolic stability in human t1/2: 53.6 min
[5]
  cell cycle arrest at G2/M phase: dose dependently increase the proportion of cells in G2/M phase
[6]; 1.0 mg/kg IV twice per week, vehicle 25 days
  median survival: 36.5 days
[6]; Experiment 2
  body weight: gained weight through day 21 of dosing
[6]; all vehicle mice deceased by 30 days
  survival of all treated mice: > 30 days
[6]; day 28, n=1
  increased metastasis (photon flux) in vehicle vs 5m treated representative mouse: 6.7 fold
[6]; mouse, in vivo
  metastatic progression in the brain, in vivo photon flux: delayed metastatic progression in the brain
[6]; vehicle mouse died on day 28
  day until which representative treated mouse lived: 35 days
[7]; Intravenous (2 mg/kg)
  Clearance: 36.9 mL/min/kg
  Cmax: 806 ng/mL
  Volume of distribution: 23.7 L/kg
[7]; Intravenous (2 mg/kg), terminal half-life
  t1/2: 882 min
[7]; Intravenous (2 mg/kg), unchanged form
  Cumulative urinary excretion (%): 0.00134%
[7]; Oral (5 mg/kg)
  Bioavailability (%): 3.2%
  Cmax: 34.7 ng/mL
[8]; 1 minute capture, vehicle 6.01×10^7
  photon flux in ex vivo brain of representative animal: 1.51×10^7 p/s
[8]; Experiment 1
  body weight: maintain body weight through day 24
[8]; bone, lungs, spleen
  extracranial metastasis, ex vivo photon flux: statistically reduced metastasis to bone, lungs, and spleen
[8]; mouse, in vivo
  adverse effects at initial dose: mice lost weight and had diarrhea
